Reference: ChEMBL document CHEMBL1146101, “Fluorine-substituted cyclofenil derivatives as estrogen receptor ligands: synthesis and structure-affinity relationship study of potential positron emission tomography agents for imaging estrogen receptors in breast cancer” (J Med Chem, 2006)

Columns and labels:
Homo sapiens = species on record: Homo sapiens; assay: Selectivity for ERbeta over ERalpha
[1] = molecular target: Estrogen receptor beta (Homo sapiens) (UniProt Q92731); assay: Binding affinity to human ERbeta relative to estradiol by radiometric binding assay
[2] = molecular target: Estrogen receptor alpha (Homo sapiens) (UniProt P03372); assay: Binding affinity to human ERalpha relative to estradiol by radiometric binding assay
Chain of Estrogen receptor alpha (Homo sapiens) (P03372 whole entry, looked up): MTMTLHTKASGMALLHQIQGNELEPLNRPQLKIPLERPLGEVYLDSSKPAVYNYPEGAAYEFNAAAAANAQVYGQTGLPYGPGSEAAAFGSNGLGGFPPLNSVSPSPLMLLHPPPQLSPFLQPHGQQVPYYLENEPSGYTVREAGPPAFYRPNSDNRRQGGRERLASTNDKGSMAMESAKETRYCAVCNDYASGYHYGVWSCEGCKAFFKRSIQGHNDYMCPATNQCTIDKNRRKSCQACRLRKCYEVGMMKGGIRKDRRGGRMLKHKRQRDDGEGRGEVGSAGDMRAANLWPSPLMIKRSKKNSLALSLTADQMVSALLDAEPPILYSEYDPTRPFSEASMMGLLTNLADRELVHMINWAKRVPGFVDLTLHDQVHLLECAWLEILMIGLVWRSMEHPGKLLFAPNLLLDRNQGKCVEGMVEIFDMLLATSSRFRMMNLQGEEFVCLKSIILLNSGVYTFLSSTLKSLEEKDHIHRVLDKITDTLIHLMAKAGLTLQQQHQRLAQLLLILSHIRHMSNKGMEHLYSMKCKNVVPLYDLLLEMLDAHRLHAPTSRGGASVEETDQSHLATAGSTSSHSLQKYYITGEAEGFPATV

Chain of Estrogen receptor beta (Homo sapiens) (Q92731 whole entry, looked up): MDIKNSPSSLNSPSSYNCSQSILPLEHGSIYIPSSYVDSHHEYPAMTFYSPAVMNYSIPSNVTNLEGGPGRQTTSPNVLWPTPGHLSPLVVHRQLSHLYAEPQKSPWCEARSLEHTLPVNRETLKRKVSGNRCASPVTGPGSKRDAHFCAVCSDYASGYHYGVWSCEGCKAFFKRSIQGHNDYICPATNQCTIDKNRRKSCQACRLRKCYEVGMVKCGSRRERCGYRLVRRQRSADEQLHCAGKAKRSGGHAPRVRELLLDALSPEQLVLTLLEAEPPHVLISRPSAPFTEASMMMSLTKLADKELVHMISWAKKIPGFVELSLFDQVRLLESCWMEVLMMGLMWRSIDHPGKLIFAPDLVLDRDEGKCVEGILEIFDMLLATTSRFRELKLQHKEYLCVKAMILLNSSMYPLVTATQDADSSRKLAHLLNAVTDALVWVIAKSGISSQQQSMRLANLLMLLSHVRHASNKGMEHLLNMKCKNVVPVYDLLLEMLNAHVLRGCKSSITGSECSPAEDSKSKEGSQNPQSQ

Row | Ratio (Homo sapiens) | relative binding affinity (RBA) [1] | relative binding affinity (RBA) [2] | Compound
1 | 2.3 | 41.5 | 18.1 | Oc1ccc(C(=C2CCC(CF)CC2)c2ccc(O)cc2)cc1 (configuration not stated)
2 | 0.99 | 0.841 | 0.846 | OCC1CCC(=C(c2ccc(O)cc2)c2ccc(O)cc2)CC1 (configuration not stated)
3 | 1.5 | 36.5 | 23.7 | COC(=O)C1CCCC(=C(c2ccc(O)cc2)c2ccc(O)cc2)C1 (configuration not stated)
4 | 0.14 | 0.372 | 2.61 | OCCC1CCC(=C(c2ccc(O)cc2)c2ccc(O)cc2)CC1 (configuration not stated)
5 | 1.7 | 57.6 | 33.9 | OCCC1CCCC(=C(c2ccc(O)cc2)c2ccc(O)cc2)C1 (configuration not stated)
6 | 0.38 | 1.45 | 3.77 | Oc1ccc(C(=C2CCC(CCOCCCCF)CC2)c2ccc(O)cc2)cc1 (configuration not stated)
7 | 0.57 | 91.4 | 160 | Oc1ccc(C(=C2CCCC(CCCF)C2)c2ccc(O)cc2)cc1 (configuration not stated)
8 | 1.2 | 75.6 | 62.7 | CCC1CCC(=C(c2ccc(O)cc2)c2ccc(O)cc2)CC1 (configuration not stated)
9 | 1.6 | 39.6 | 24.8 | OCC1CCCC(=C(c2ccc(O)cc2)c2ccc(O)cc2)C1 (configuration not stated)
10 | 0.58 | 2.82 | 4.88 | CCOCC1CCC(=C(c2ccc(O)cc2)c2ccc(O)cc2)CC1 (configuration not stated)
11 | 2.3 | 61.8 | 27 | Oc1ccc(C(=C2CCC(F)CC2)c2ccc(O)cc2)cc1 (configuration not stated)
12 | 0.18 | 10.3 | 58.5 | COC(=O)CC1CCCC(=C(c2ccc(O)cc2)c2ccc(O)cc2)C1 (configuration not stated)
13 | 3.7 | 20.5 | 5.61 | Oc1ccc(C(=C2CCC2)c2ccc(O)cc2)cc1
14 | 0.45 | 3.02 | 6.77 | CCOC(=O)C1CCC(=C(c2ccc(O)cc2)c2ccc(O)cc2)CC1 (configuration not stated)
15 | 3.2 | 354 | 110 | Oc1ccc(C(=C2CCCCCC2)c2ccc(O)cc2)cc1
16 | 7.7 | 137 | 17.8 | Oc1ccc(C(=C2CCCC2)c2ccc(O)cc2)cc1
17 | 0.98 | 46.1 | 47.2 | OCCCC1CCCC(=C(c2ccc(O)cc2)c2ccc(O)cc2)C1 (configuration not stated)
18 | 4.1 | 274 | 66.5 | CC1CCC(=C(c2ccc(O)cc2)c2ccc(O)cc2)CC1 (configuration not stated)
19 | 1.1 | 129 | 122 | Oc1ccc(C(=C2CCCC(CCF)C2)c2ccc(O)cc2)cc1 (configuration not stated)
20 | 2.3 | 285 | 124 | Oc1ccc(C(=C2CCCCC2)c2ccc(O)cc2)cc1
21 | 0.94 | 0.307 | 0.327 | Oc1ccc(C(=C2CCC(O)CC2)c2ccc(O)cc2)cc1 (configuration not stated)
22 | 0.16 | 1.72 | 10.7 | COC(=O)CC1CCC(=C(c2ccc(O)cc2)c2ccc(O)cc2)CC1 (configuration not stated)
23 | 1.2 | 18.9 | 15.9 | Oc1ccc(C(=C2CCC(CCF)CC2)c2ccc(O)cc2)cc1 (configuration not stated)
24 | 0.012 | 0.234 | 19.5 | COC(=O)C(C(=O)OC)C1CCCC(=C(c2ccc(O)cc2)c2ccc(O)cc2)C1 (configuration not stated)
